Measurements reported in patent US8664271B2, “Stabilized leukotriene B4 (LTB4) agent pharmaceutical formulation” (LTB4 Sweden AB, priority 2004, dated 2014).

Tests used:
[1] = Pharmacokinetics of LTB4 in rats after i.v., i.j. and s.c. administration (plasma ELISA); assay type: in vivo, female Sprague-Dawley rats; conditions: rat
Method: In this example, the pharmacokinetics of LTB4 in rats following administration by three distinct routes, intravenous (i.v.), intra-jejunal (i.j.) and sub-cutaneous (s.c.) was investigated.
Three groups of three female Sprague-Dawley rats (weighing ˜250 g) were used; animals were fasted for 18 hours, anesthetised with ketamine/xylazine and their jugular veins were canulated to allow for repeated blood sampling. LTB4 was administered at the dose of 50 μg/kg at the dose volume of 4 ml/kg for all routes. Blood samples (0.5 ml/sample) where taken at 0, 0.5, 1, 2, 5, 15, 30, and 60 minutes following LTB4 injection. The blood samples where immediately anti-coagulated with EDTA and transferred into an ice-water bath until centrifugation for plasma isolation. Plasma samples were stored at −80° C. until assayed for LTB4 content using a commercial ELISA (Cayman Chemicals, Ann Arbor, Mich., USA). The i.v administration (15 sec. bolus) of LTB4 was done through the tail vein; for i.j. administration, LTB4 was directly injected in the jejunum after opening of the abdominal cavity; s.c. administration was done in the dorsal region.

[2] = Forced degradation of ethanolic solutions of LTB4 (acid form and Na salt); assay type: physicochemical
Method: The ethanolic solution of LTB4 (acid form) (EtOH/water, 95/5) obtained from the manufacturer (Cascade Biochem, UK) was diluted with EtOH/water, 95/5 to generate ethanolic solutions of LTB4 (acid form) at 9 and 0.9 mg/ml. Ethanolic solutions of the sodium salt of LTB4 at 9 and 0.9 mg/ml were obtained by adding 1.05 equivalent of sodium hydroxide. Solutions of the sodium salt of LTB4 at the concentration of 9 and 0.9 mg/ml in 75/25 EtOH/10 mM glycine in water at pH 10.5 (sodium hydroxide), were obtained by mixing 3 volumes of solutions of the sodium salt of LTB4 at 12 and 1.2 mg/ml in EtOH/water, 95/5 with 1 volume of 40 mM glycine buffer at pH 10.5. Solutions were dispensed in 2 ml vials for storage under air in the dark at −80° C. and 40±5° C. for 17 months prior to reverse phase HPLC analysis of LTB4 and impurities as described in Example 1.

time of maximum plasma LTB4 level ([1]; i.j. administration, 50 μg/kg): 5 min
time of return of LTB4 plasma levels to baseline ([1]; i.j. administration, 50 μg/kg): 30 min
AUC for LTB4 plasma concentration, comparison of routes ([1]; i.v. injection, 50 μg/kg, compared with i.j. and s.c.): highest AUC
AUC for i.j. injection relative to that of i.v. LTB4 ([1]; in vivo, 50 ug/kg): 35%
impurity level ([2]; 0.9 mg/ml in 95/5 EtOH/water, 17 months at 40° C.): 62 % of AUC
level of impurities ([2]; 9.0 mg/ml in EtOH/water 95/5, 17 months at 40° C., AUC at 270 nm): 100 % of AUC
Compound: CCCCC/C=C\C[C@@H](O)/C=C/C=C/C=C\[C@@H](O)CCCC(=O)O [LTB4, 5S,12R-dihydroxy-6,8,10,14(Z,E,E,Z)-eicosatetrae-noic acid]
